This is an account of results in publication PMC12430544 (Molecules, 2025).

Usually IC50 stands for the concentration that inhibits the measured activity by half. As usually defined, the inhibition is the relative decrease from the control value, in per cent.

Data set [1] addresses T1, acetylcholinesterase (AChE, from an electric eel) (Electrophorus electricus, UniProt O42275).
T1 construct: purchased Sigma-Aldrich
The experiment in a line: biochemical. Conditions: for IC50: electric eel AChE, Ellman's method, pH 7.4, means ± SEM of at least three experiments, read-out: IC50 AChE Inhibition; for Selectivity Index = IC50 (AChE)/IC50 (BuChE): ratio of eeAChE and equine BuChE IC50. The method, then: (§1) Cholinesterase (ChE) inhibitory activity was evaluated using a modified Ellman’s spectrophotometric method. Acetylcholinesterase (AChE, from electric eel), butyrylcholinesterase (BuChE, from equine serum), 5,5′-dithiobis-(2-nitrobenzoic acid) (Ellman’s reagent, DTNB), S-butyrylthiocholine iodide (BTCI), acetylthiocholine iodide (ATCI), and tarcine hydrochloride were purchased from Sigma-Aldrich. Tarcine hydrochloride was used as a reference standard. All the assays were carried out in 0.1 M KH2PO4/K2HPO4 buffer (pH = 7.4). Stock solutions of tested compounds (10 mM) were prepared in DMSO (below 0.5%, v/v) and diluted in phosphate buffer. The assay was performed in 96-well plate by adding 25 μL of 1 mM acetylthiocholine iodide or butyrylthiocholine iodide used as substrate in the assay, 125 μL of 1 mM 5,5′-dithiobis-(2-nitrobenzoic acid) (DTNB), 25 μL of 0.1 M phosphate buffer (pH = 7.4), 25 μL of testing substance in various concentrations, and 50 μL of 0.2 Units/mL AChE from an electric eel or BuChE from equine serum, respectively. At least five concentrations of the test compounds were assayed. […] The enzyme activity and the percentage inhibition were determined.
A general note: In Ellman's method for cholinesterases, released thiocholine reacts with DTNB.

The target in data set [2] is T2, butyrylcholinesterase (BuChE, from horse serum) (Equus caballus, UniProt P81908).
T2 construct: purchased Sigma-Aldrich
The experiment in a line: biochemical. Particulars: equine serum BuChE, Ellman's method, pH 7.4; means ± SEM of at least three experiments; read-out: IC50 BuChE Inhibition. The protocol:
as §1

Data set [3] in a line: Metal chelation by UV–vis spectrometry, stoichiometry and affinity estimate (Zn). The format is physicochemical. Particulars: CH3OH/H2O (v/v = 9/1), 2L+M⇔ML2. The text has this: (§2) Given the 8-hydroxy(amino)quinoline moiety with the properties to bind metal ions, the abilities of all the compounds in binding metal ions (Cu^II, Fe^III, Zn^II) were studied by UV–vis spectrometry. At first three compounds were chose to test the binding abilities. Upon the addition of CuCl2 or ZnSO4 the maximum absorption suffered a bathochromic shift, pointing out the formation of complex compound–Cu^II. […] […].
(§3) To determine the stoichiometry of the complex compound–Cu^II, the technique of continuous variations (also called Job’s method) was used by preparing solutions of compounds 15a, 17b and CuSO4 so that the sum of concentrations of both species was constant at […] in all samples, but the proportions of both components varied between 0 and 100%. The UV spectra were recorded and the absorbance change at the maximum absorption wavelength of the compound-Cu^II complex, meaning the 15a-Cu^II complex at 264 nm and the 17b-Cu^II at 265 nm, respectively. The absorbance change was plotted versus the mole fraction of the compound, giving two straight lines whose equations were calculated. […] […].
(§4) Since all the ligands studied L from ML2 species and in accordance with the Beer–Lambert law, complexation reactions can be summarized as 2L+M⇔ML2 with K = 1−α/4C^2α^3 , and α can be calculated from the data of the absorption.
(§5) Metal-chelating properties were evaluated by UV–vis spectrometry. To screen the ability of chelating metal ions, the same concentrations of compound and metal ion were mixed in CH3OH/H2O (v/v = 9/1), and the UV–vis spectrum was tested; compared to the compound, the maximum absorption that suffered a bathochromic shift would point out the formation of a complex compound–metal ion. The stoichiometry of the complex compound–metal ion was determined by Job’s method. The affinity of compounds 15–17 as ligands (excepted 15f, 16d, 16g, 16k) for Cu^II or Zn^II were estimated in the CH3OH/H2O solution (v/v = 9/1). Since all the ligands studied L from ML2 species and in accordance with the Beer–Lambert law, complexation reactions can be summarized as 2L+M⇔ML2 with K = 1−α/4C^2α^3 , and α = A/Amax; A was the data of absorption tested when the compound–metal ion = 2/1 under the maximum absorption wavelength of the complex, Amax was the absorption when the compound completely formed a complex with the metal ion; the data can be obtained as an approximation when the metal ion is in excess, and the absorption changes little as the concentration of metal ion still increases.

The nature of data set [4]: Metal chelation by UV–vis spectrometry, Job's method and affinity estimate (Cu). Particulars: CH3OH/H2O (v/v = 9/1), UV–vis, 2L+M⇔ML2. The format is physicochemical.
Source text: as §2, §3, §4, §5

For data set [5], the target named is T3, Aβ1–42 (Homo sapiens, UniProt P05067).
T3 construct: aggregation of Aβ1–42 synthetic peptide into fibrils
Kind of data set: Inhibition of self-induced Aβ1–42 aggregation (ThT fluorescence). The format is biochemical. Conditions: 20 μM compound, thioflavin-T fluorescence, mean ± SD of at least three independent experiments; read-out: Aβ Aggregation Inhibition (%), self-induced Aβ1–42. The method, then:
Self-induced Aβ1–42 aggregation of all the compounds we obtained was also evaluated. […] ThT is a histochemical dye that is known to bind to the peptide β-sheet conformation, which is the predominant secondary structure of amyloid-beta fibrils. […] The inhibition studies were carried out upon incubating Aβ1–42 with and without the compounds.
Aβ1–42 was dissolved in 100% 1,1,1,3,3,3-[…] (HFIP) to a concentration of 1 mg/mL, sonicated in a water bath overnight, aliquoted into microcentrifuge tubes, dried under vacuum, and stored at −20 °C. Immediately prior to use, the HFIP-treated Aβ1–42 was dissolved in dimethylsulfoxide (DMSO) as the stored solution. […] Amounts of 5 μL of compound (200 μM) and 5 μL of 200 μM Aβ1–42 were added into 40 μL of phosphate-buffered saline (PBS at pH 7.4). After incubation at room temperature on a thermostatic shaker for 72 h, 100 μL of 5 μM ThT solution (in PBS at pH 7.4) was added to the reaction solution. […] The Aβ1–42 aggregation inhibition percentage was calculated using the following formula: inhibition percentage = (F1 − F2)/(F1 − F0) × 100%.

T1 sequence (O42275 24-633): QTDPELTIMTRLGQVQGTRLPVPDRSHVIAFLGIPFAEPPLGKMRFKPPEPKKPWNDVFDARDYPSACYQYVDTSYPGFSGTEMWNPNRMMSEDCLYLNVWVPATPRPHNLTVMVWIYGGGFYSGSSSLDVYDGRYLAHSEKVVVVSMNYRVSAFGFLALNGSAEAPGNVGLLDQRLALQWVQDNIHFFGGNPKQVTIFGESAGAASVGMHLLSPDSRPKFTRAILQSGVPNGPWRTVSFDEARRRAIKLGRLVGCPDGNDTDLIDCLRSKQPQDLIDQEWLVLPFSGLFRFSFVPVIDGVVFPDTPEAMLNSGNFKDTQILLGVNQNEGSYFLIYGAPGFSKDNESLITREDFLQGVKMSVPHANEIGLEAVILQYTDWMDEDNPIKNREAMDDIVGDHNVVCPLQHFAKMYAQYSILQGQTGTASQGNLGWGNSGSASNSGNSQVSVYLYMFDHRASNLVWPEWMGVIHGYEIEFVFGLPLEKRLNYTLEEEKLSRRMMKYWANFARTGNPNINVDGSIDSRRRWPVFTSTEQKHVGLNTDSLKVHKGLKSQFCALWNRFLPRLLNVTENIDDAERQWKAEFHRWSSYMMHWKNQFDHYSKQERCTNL
T2 sequence (P81908 whole entry): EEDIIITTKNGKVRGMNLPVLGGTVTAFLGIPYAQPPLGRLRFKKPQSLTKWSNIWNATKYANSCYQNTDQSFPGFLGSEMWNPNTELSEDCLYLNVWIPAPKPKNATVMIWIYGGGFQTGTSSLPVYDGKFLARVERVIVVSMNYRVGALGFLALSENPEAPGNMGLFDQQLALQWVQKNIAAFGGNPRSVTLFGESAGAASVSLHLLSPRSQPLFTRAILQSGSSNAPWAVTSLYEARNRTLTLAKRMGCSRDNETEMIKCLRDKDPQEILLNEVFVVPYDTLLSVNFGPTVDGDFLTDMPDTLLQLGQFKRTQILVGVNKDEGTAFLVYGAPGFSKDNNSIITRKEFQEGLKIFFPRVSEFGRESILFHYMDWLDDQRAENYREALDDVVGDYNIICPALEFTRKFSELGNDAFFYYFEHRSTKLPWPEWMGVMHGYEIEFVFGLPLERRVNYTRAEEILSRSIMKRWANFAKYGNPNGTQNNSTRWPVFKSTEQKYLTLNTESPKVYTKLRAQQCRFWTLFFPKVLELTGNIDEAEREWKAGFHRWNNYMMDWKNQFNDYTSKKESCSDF
T3 sequence (P05067 672-713): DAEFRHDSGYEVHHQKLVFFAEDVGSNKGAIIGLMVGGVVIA

`O=C(CN1CCN(Cc2ccc3c(Cl)ccc(O)c3n2)CC1)Nc1c2c(nc3ccccc13)CCCC2` [Compound 15b, 2-(4-((5-Chloro-8-hydroxyquinolin-2-yl)methyl)piperazin-1-yl)-N-(1,2,3,4-tetrahydroacridin-9-yl)acetamide]: in data set [1], the IC50 amounted to 2180 ± 170 nM and the “Selectivity Index = IC50 (AChE)/IC50 (BuChE)” value (“Selectivity Index = IC50” for short) is 0.19. Further, in data set [2], the IC50 stood at 11500 ± 1560 nM. Besides, in data set [3], the “LogK Zn (affinity of ligand for Zn^II, ML2)” value (“LogK Zn” for short) is on record as 11.34. The “LogK Cu (affinity of ligand for Cu^II, ML2)” value (shortened to “LogK Cu”) in data set [4] was 10.09.

With `O=C(CN1CCN(Cc2ccc3c(Cl)cc(Cl)c(O)c3n2)CC1)Nc1c2c(nc3ccccc13)CCCC2` [Compound 15e, 2-(4-((5,7-Dichloro-8-hydroxyquinolin-2-yl)methyl)piperazin-1-yl)-N-(1,2,3,4-tetrahydroacridin-9-yl)acetamide], in data set [1], the IC50 is 5730 ± 170 nM and the “Selectivity Index = IC50” value came to 1.04. The concentration for half-maximal inhibition (IC50) in data set [2] is 5530 ± 270 nM. Moreover, in data set [5], the inhibition at 20 µM is 55.9 ± 2.5%. The “LogK Zn” value in data set [3] is recorded as 9.65. Besides, the “LogK Cu” value in data set [4] was 9.59.

Regarding `Nc1cccc2ccc(CN3CCN(CC(=O)Nc4c5c(nc6ccccc46)CCCC5)CC3)nc12` [Compound 15f, 2-(4-((8-Aminoquinolin-2-yl)methyl)piperazin-1-yl)-N-(1,2,3,4-tetrahydroacridin-9-yl)acetamide], in data set [1], the IC50 is 1240 ± 210 nM and the “Selectivity Index = IC50” value was 0.16. Also, the IC50 in data set [2] is 7850 ± 710 nM. In addition, in data set [5], the inhibition at 20 µM was determined as 22 ± 1.8%.

As for `Oc1cccc2ccc(CN3CCN(CCNc4c5c(nc6ccccc46)CCCC5)CC3)nc12` [Compound 16a, 2-((4-(2-((1,2,3,4-Tetrahydroacridin-9-yl)amino)ethyl)piperazin-1-yl)methyl)quinolin-8-ol], in data set [1], the 50% inhibitory concentration (IC50) came to 440 ± 6 nM and the “Selectivity Index = IC50” value is recorded as 1.63. Besides, in data set [2], the 50% inhibitory concentration (IC50) was found to be 270 ± 4 nM. Besides, the inhibition at 20 µM in data set [5] turned out to be 77 ± 4.3%. Moreover, the “LogK Zn” value in data set [3] is 9.48. For the same compound, in data set [4], the “LogK Cu” value is listed as 9.63.

Consider `Oc1ccc(F)c2ccc(CN3CCN(CCNc4c5c(nc6ccccc46)CCCC5)CC3)nc12` [Compound 16b, 5-Fluoro-2-((4-(2-((1,2,3,4-tetrahydroacridin-9-yl)amino)ethyl)piperazin-1-yl)methyl)quinolin-8-ol], for which the IC50 in data set [1] was 190 ± 5 nM; in data set [2], 200 ± 3 nM. The “Selectivity Index = IC50” value in data set [1] turned out to be 0.95. Moreover, the inhibition at 20 µM in data set [5] was determined as 22.9 ± 2.4%. In addition, in data set [3], the “LogK Zn” value is reported as 9.63. In addition, the “LogK Cu” value in data set [4] is 9.99.

`Oc1c(Cl)cc(Cl)c2ccc(CN3CCN(CCNc4c5c(nc6ccccc46)CCCC5)CC3)nc12` [Compound 16c, 5,7-Dichloro-2-((4-(2-((1,2,3,4-tetrahydroacridin-9-yl)amino)ethyl)piperazin-1-yl)methyl)quinolin-8-ol]: the IC50 came out at 2680 ± 300 nM in data set [1] and 3410 ± 6 nM in data set [2]. Besides, in data set [1], the “Selectivity Index = IC50” value is 0.79. Moreover, the inhibition at 20 µM in data set [5] was 92.5 ± 3.3%. In addition, the “LogK Zn” value in data set [3] is 9.28. In data set [4], the “LogK Cu” value was 9.75.

On to `Nc1cccc2ccc(CN3CCN(CCNc4c5c(nc6ccccc46)CCCC5)CC3)nc12` [Compound 16d, N-(2-(4-((8-aminoquinolin-2-yl)methyl)piperazin-1-yl)ethyl)-1,2,3,4-tetrahydroacridin-9-amine], for which, in data set [1], the IC50 came out at 180 ± 4 nM and the “Selectivity Index = IC50” value was found to be 0.86. Moreover, in data set [2], the IC50 is 210 ± 3 nM. Also, the inhibition at 20 µM in data set [5] was 84.7 ± 3.6%.

Regarding `Oc1ccc(F)c2ccc(CN3CCN(CCCNc4c5c(nc6ccccc46)CCCC5)CC3)nc12` [Compound 16f, 5-Fluoro-2-((4-(3-((1,2,3,4-tetrahydroacridin-9-yl)amino)propyl)piperazin-1-yl)methyl)quinolin-8-ol], the IC50 in data set [1] was 87 ± 2 nM; in data set [2], 28 ± 2 nM. Further, the “Selectivity Index = IC50” value in data set [1] worked out at 3.11. The inhibition at 20 µM in data set [5] was determined as 54.4 ± 2.9%. Further, the “LogK Zn” value in data set [3] is reported as 9.45. Also, in data set [4], the “LogK Cu” value was 9.62.

In the case of `Oc1cccc2ccc(CN3CCN(CCCCCNc4c5c(nc6ccccc46)CCCC5)CC3)nc12` [Compound 16h, 2-((4-(5-((1,2,3,4-Tetrahydroacridin-9-yl)amino)pentyl)piperazin-1-yl)methyl)quinolin-8-ol], the IC50 stood at 210 ± 3 nM in data set [1] and 100 ± 10 nM in data set [2]. For the same compound, the “Selectivity Index = IC50” value in data set [1] came to 2.10. Besides, the inhibition at 20 µM in data set [5] is 93.2 ± 3.9%. For the same compound, in data set [3], the “LogK Zn” value is 9.63. Further, in data set [4], the “LogK Cu” value is 9.87.

With `Oc1ccc(F)c2ccc(CN3CCN(CCCCCNc4c5c(nc6ccccc46)CCCC5)CC3)nc12` [Compound 16i, 5-Fluoro-2-((4-(5-((1,2,3,4-tetrahydroacridin-9-yl)amino)pentyl)piperazin-1-yl)methyl)quinolin-8-ol], in data set [1], the IC50 was determined as 400 ± 6 nM and the “Selectivity Index = IC50” value is 3.33. For the same compound, in data set [2], the IC50 was determined as 120 ± 20 nM. In data set [5], the inhibition at 20 µM was 55.6 ± 5.3%. Besides, the “LogK Zn” value in data set [3] is listed as 9.49. In addition, the “LogK Cu” value in data set [4] is reported as 9.49.

For `Nc1cccc2ccc(CN3CCN(CCCCCNc4c5c(nc6ccccc46)CCCC5)CC3)nc12` [Compound 16k, N-(5-(4-((8-aminoquinolin-2-yl)methyl)piperazin-1-yl)pentyl)-1,2,3,4-tetrahydroacridin-9-amine], the half-maximal inhibitory concentration (IC50) in data set [1] was determined as 210 ± 3 nM; in data set [2], 54 ± 4 nM. For the same compound, the “Selectivity Index = IC50” value in data set [1] came to 3.89. Moreover, the inhibition at 20 µM in data set [5] was found to be 86.7 ± 3.8%.

As for `COc1cc(/C=C/C(=O)CC(=O)/C=C/c2ccc(O)c(OC)c2)ccc1O` [curcumin, reference compound], the inhibition at 20 µM in data set [5] was determined as 58.3 ± 2.5%.
